We go through 4 compounds from US20030044413A1, “Methods of limiting apoptosis of cells” (Regents of the University of Minnesota, priority 1998, published 2003).

For experiment [1], the system named is primary rat hepatocytes. Put plainly: DCA-induced apoptosis, Hoechst staining, primary rat hepatocytes. Format: cell-based. An excerpt: Cell culture and preparation of rat primary hepatocytes. Rat primary hepatocytes were isolated from male Sprague-Dawley rats (200-250 g) by collagenase perfusion as described previously (Mariash et al., J. Biol. Chem, 261, 9583-9586 (1986)). Briefly, rats were aneshtesized with phenobarbitol and the livers were perfused with 0.05% collagenase. Hepatocyte suspensions were obained by passing digested livers through 0.125 mm gauze and washing cells in modified Eagles' medium (MEM, Life Technologies, Inc., Grand Island, N.Y.). […] After isolation, hepatocytes were resuspended in William's E medium (Life Technologies, Inc., Grand Island, N.Y.) supplemented with 26 mM sodium bicarbonate, 23 mM HEPES, 0.01 U/ml insulin, 2 mM L-glutamine, 10 nM dexamethasone, 5.5 mM glucose, 100 U/ml penicillin and 100 U/ml streptomycin and then 1.0×10^6 cells were plated on 35×10 mm […] tissue culture dishes (Becton Dickinson Labware, Lincoln Park, N.J.). The cells were maintained at 37° C. in a humidified atmosphere of 5% CO2 for 3 h. Plates were then washed with medium to remove dead cells, and medium containing 10% heat-inactivated FBS (55° C. for 30 min) was added (Atlanta Biologicals, Inc., Norcross, Ga.). Aliquots of 1.0×10^5 human (HuH-7) hepatoma cells were plated on 35×10 mm tissue culture dishes (Becton Dickinson Labware) and maintained at 37° C. in Dulbecco's MEM (Atlanta Biologicals, Inc.) supplemented with 10% FBS, 100 U/ml penicillin and 100 u/ml streptomycin for 3 h prior to incubation with bile acids.
Incubation of cells with bile acids. […] The medium was gently removed at the indicated time points and scored for nonviable cells by trypan blue dye exclusion. […]
Morphological evaluation of apoptosis. […] Fluorescence was visualized with a Zeiss standard fluorescence microscope (Carl Zeiss, Inc., Thornwood, N.Y.). […] Stained nuclei were scored by blind analysis and categorized according to the condensation and staining characteristics of chromatin. […] Three fields per dish of approximately 500 nuclei were counted; mean values are expressed as the percent of apoptotic nuclei.

The subject of experiment [2] is Cos-7 cells. Put plainly: Okadaic acid-induced apoptosis, Cos-7 cells. Type of experiment: cell-based, monkey. The procedure:
HuH-7 cells were treated with 1 nM TGF-β1, 100 μM of either hyodeoxycholic acid, taurocholic acid, tauroursodeoxycholic acid (Sigma Chemical Co.) or glycoursodeoxycholic acid (Steraloids Inc., Wilton, N.H.), or a combination of TGF-β1 plus the individual bile acids for 72 h. HeLa and Cos-7 cells were incubated with 50 nM okadaic acid, 100 μM of either tauroursodeoxycholic acid or glycoursodeoxycholic acid, or a combination of okadaic acid plus the individual bile acids for 24 h. In the combination groups, cells were pretreated with the bile acid alone for 60 min prior to incuation with TGF-β1 or okadaic acid. In all studies, the medium was gently removed at the indicated times and scored for nonviable cells. The attached cells were fixed for morphologic evaluation of apoptosis.
Morphological evaluation of apoptosis. Morphology was performed as described previously (Oberhammer et al., Proc. Natl. Acad. Sci. USA 89, 5408-5412 (1992)). […] Fluorescence was visualized with a Zeiss standard fluorescence microscope (Carl Zeiss, Inc., Thornwood, N.Y.). […] Stained nuclei were scored by blind analysis and categorized according to the condensation and staining characteristics of chromatin. […] Three fields per dish of approximately 500 nuclei were counted; mean values are expressed as the percent of apoptotic nuclei.

The subject of experiment [3] is HuH-7 cells. The experiment is described as follows: FACS analysis of ΔΨm and ROS, HuH-7 cells. Format: cell-based, human. The procedure: A ΔΨm and ROS measurement. ΔΨm and ROS production were measured by FACScan (Becton Dickinson) analysis. Freshly isolated rat hepatocytes were cultured for 3 h as described above and then incubated with William's E medium supplemented with either 100 μM DCA, 100 μM UDCA, equal molar amounts of both, or no bile acid (control), for 6 h. Rat hepatocytes were also cultured with either 1% ethanol, 100 μM UDCA, ethanol+UDCA, or no addition (control) for 4 h. HuH-7 cells, Hep G2 cells, and human osteogenic sarcoma Saos-2 cells were incubated with TGF-β1, anti-Fas antibody or okadaic acid, respectively, for 48 h under the same conditions as outlined above. For combination studies, cells were pretreated with UDCA or hyodeoxycholic acid for 60 min prior to addition of DCA, ethanol, TGF-β1, anti-Fas antibody or okadaic acid. Aliquots of 1.0×10^6 cells were incubated for 15 min at 37° C. with 50 nM 3,3′-dihexyloxacarbocyanine iodide [DiOC6(3)], 2 μM dihydroethidium (HE), or 5 μM 2′,7′-dichlorofluorescin diacetate (H2DCFDA; Molecular Probes, Inc. Eugene, Oreg.) and analyzed by cytofluorometry (Cathcart et al., Anal. Biochem., 134, 111-116 (1983); Zamzami et al., J. Exp. Med., 181, 1661-1672 (1 995); Carter et al., J. Leukocyte Biol., 55, 253-258 (1994)).
Rat primary hepatocytes were incubated with 100 μM DCA and 1% ETOH for 6 h and 4 h, respectively; HuH-7 cells with 1 nM TGF-β1 for 48 h; Hep G2 cells with 0.5 μg/ml anti-Fas antibody (CH-11) for 48 h, and Saos-2 cells with 50 nM okadaic acid (OA) for 48 h. In each combination group, cells were pretreated with 100 μM UDCA alone for 60 min prior to addition of the inducer. Aliquots of 1.0×10^6 cells were incubated for 15 min at 37° C. with 5 μM 2′,7′-dichlorofluorescin diacetate (H2DCFDA) and analyzed by cytofluorometry.
In general terms: A flow cytometer gives signals particle by particle.

The subject of experiment [4] is cytochrome c. The experiment is described as follows: Cytochrome c release from isolated mitochondria after MPT. On the set-up: species or system rat. The conditions noted are these: substance alone on isolated mitochondria.
Experimental: Mitochondria isolation. […] In short, animals were sacrificed by exsanguination under ether anesthesia and the livers removed and rinsed in normal saline. Approximately 10 g of minced liver was homogenized at a speed of 800 rpm using 6 complete up and down strokes with a speed controlled mechanical skill drill and a teflon pestle (Tri-R Model K41, Tri-R Instruments, Rockville Center, N.Y.) in an ice-cold solution of 70 mM sucrose, 220 mM mannitol, 1 mM EGTA and 10 mM HEPES, pH 7.4 as a 10% (wt/vol) homogenate. The homogenate was centrifuged at 600×g for 10 min at 4° C. in an SS-34 rotor in a Sorvall RC5C centrifuge (Sorvall Instruments, Newtown, Conn.), and the postnuclear supernatant was centrifuged at 7,000×g for 10 min at 4° C. […] The pellet was resuspended in 2 mL of homogenate buffer, and 1 mL of the resuspended pellet was carefully layered onto a 35-mL self-generating gradient containing 0.25 M sucrose, 1 mM EGTA and percoll (Pharmacia Fine Chemicals, Piscataway, N.J.) (75:25, vol/vol). The mitochondria were purified by centrifugation at 43,000×g for 30 min at 4° C. using a Beckman Ti60 rotor and a Beckman ultracentrifuge model L8-55 (Beckman Instruments, Inc., Schaumburg, Ill.). The clear supernatant solution removed and the lower turbid layer was resuspended in 30 mL of wash buffer containing 0.1 M KCl, 5 mM 3-(N-morpholino)-propane sulfonic acid (MOPS), and 1 mM EGTA, at pH 7.4 and centrifuged at 7,000×g for 10 min at 4° C. The resulting mitochondria pellet was washed in wash buffer two times. A final wash was carried out in chelex-100-treated buffer (Bio-Rad Laboratories, Richmond, Va.; 200-400 mesh, potassium form) without EGTA. The pellet was suspended in 4 mL of chelex-100-treated resuspension buffer containing 125 mM sucrose, 50 mM KCl, 5 mM HEPES, and 2 mM KH2PO4. The usual yield of mitochondria was approximately 25 mg of protein per gram of liver tissue. Mitochondria were used for experiments within 3 h of isolation. Aliquots were removed for examining the purity of the mitochondria preparation.
Measurement of MPT and determination of cytochrome c content in supernatants and mitochondrial pellets after MPT. The MPT was assessed using a spectrophotometric assay measuring high amplitude rapid changes in mitochondria volume. Mitochondria (1 mg protein) were incubated in 1 ml of chelex-100-treated respiration buffer (0.1 M NaCl, 10 mM MOPS, pH 7.4) for 10 min at 25° C. and swelling was monitored at 540 nm in a Beckman DU 64 spectrophotometer. […] Basal values of mitochondria absorbance were measured for 5 min, and the optical density was monitored for an additional 5 min after addition 200 μM DCA or 80 μM phenylarsine oxide (PhAsO; Sigma Chemical Co.). […]
[5] abbreviates: inducer TGF-β1, HuH-7, inhibition by UDCA.

Broadly, the cell viability is a per cent measure of how many cells are alive, often set against a control. Broadly, the inhibition is the drop in the measured response relative to a control, in per cent. For the compound `C[C@H](CCC(=O)O)[C@H]1CC[C@H]2[C@@H]3[C@@H](O)C[C@@H]4C[C@H](O)CC[C@]4(C)[C@H]3CC[C@]12C` [UDCA, ursodeoxycholic acid], in experiment [1] (50 μM DCA + 50 μM UDCA, 6 h), the cell viability is listed as 88.5±4.9%. Besides, the “Inhibition % Apoptosis” value in experiment [1] (inducer DCA, hepatocytes, inhibition by UDCA) came out at 90.9 ± 4.6%. Besides, the percent apoptosis in experiment [2] (okadaic acid + UDCA) is on record as 7.3±2.4%. Also, the “Peroxides Production (%) Inducer + UDCA” value in experiment [3] (1 nM TGF-β1 48 h, 100 μM UDCA pretreatment 60 min) amounted to 5.8 ± 2.9 %. Further, the inhibition at 100 µM in experiment [3] (Homo sapiens, inducer TGF-β1, HuH-7, 100 μM UDCA, read-out: % Inhibition of peroxides production) amounted to 47.3 ± 16%. In experiment [3] (setting [5]), the “Inhibition % Superoxide Anion” value is 69.9 ± 15.6% and the “Inhibition % _Ψm” value is on record as 45.0 ± 21.7%.
Consider “TGF-β1: transforming growth factor β1, nonmembrane damaging inducer of apoptosis”, for which the “Peroxides Production (%) Inducer” value in experiment [3] (1 nM TGF-β1, 48 h, HuH-7) amounted to 11.0 ± 2.9%. Besides, the “translocation of cytochrome c to the supernatants” value in experiment [4] is listed as “nor did they cause translocation of cytochrome c”.
As to `C=C1[C@@H](O)[C@@H]2O[C@]3(CC[C@H](/C=C/[C@@H](C)[C@@H]4CC(C)=C[C@@]5(O[C@H](C[C@@](C)(O)C(=O)O)CC[C@H]5O)O4)O3)CC[C@H]2O[C@@H]1[C@@H](O)C[C@H](C)[C@H]1O[C@@]2(CCCCO2)CC[C@H]1C` [okadaic acid], the percent apoptosis in experiment [2] (okadaic acid alone) came out at 21.4±2.9%. For the same compound, in experiment [4], the “translocation of cytochrome c to the supernatants” value is reported as “nor did they cause translocation of cytochrome c”.
On to `C[C@H](CCC(=O)O)[C@H]1CC[C@H]2[C@@H]3CC[C@@H]4C[C@H](O)CC[C@]4(C)[C@H]3C[C@H](O)[C@]12C` [DCA, deoxycholic acid], for which, in experiment [1] (50 μM DCA, 2 h), the “percentage of apoptotic cells, increase over control” value was found to be 8 fold.
